Measured values from ChEMBL document CHEMBL1201862, “PubChem BioAssay data set” (2004).
Active and inactive are the calls of the source.

Tests used:
[1] = molecular target: Glucose-6-phosphate 1-dehydrogenase (Homo sapiens, UniProt P11413); assay: human G6PD enzyme inhibitors, dose response, selectivity assay for P. falciparum G6PD inhibitor project, biochemical, fluorescence (AID 504792); format: functional
HeLa = assay: HeLa cell cytotoxicity, dose response, cytotoxicity control for MITF activator project, CellTiter-Glo luminescence, cherry-pick samples (AID 540259); format: functional, cell-based; conditions: Homo sapiens
cells = format: functional
[2] = molecular target: Beta-2 adrenergic receptor (Homo sapiens, UniProt P07550); assay: beta2AR agonists driving receptor internalization, dose response, cell-based, FAP fluorogen, flow cytometry, cherry pick 1 (AID 588763); format: functional
Chain of Beta-2 adrenergic receptor (P07550 whole entry): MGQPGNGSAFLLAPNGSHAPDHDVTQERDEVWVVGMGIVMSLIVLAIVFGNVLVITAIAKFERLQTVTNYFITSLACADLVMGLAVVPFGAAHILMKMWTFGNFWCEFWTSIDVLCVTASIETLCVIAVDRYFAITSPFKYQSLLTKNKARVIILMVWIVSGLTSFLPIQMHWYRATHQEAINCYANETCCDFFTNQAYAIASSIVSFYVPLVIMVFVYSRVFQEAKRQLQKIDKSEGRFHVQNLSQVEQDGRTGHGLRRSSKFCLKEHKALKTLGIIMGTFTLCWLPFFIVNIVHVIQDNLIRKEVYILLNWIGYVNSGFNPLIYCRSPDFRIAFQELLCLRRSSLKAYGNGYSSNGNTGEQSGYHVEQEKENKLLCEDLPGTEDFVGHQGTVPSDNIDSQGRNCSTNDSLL

Chain of Glucose-6-phosphate 1-dehydrogenase (P11413 whole entry): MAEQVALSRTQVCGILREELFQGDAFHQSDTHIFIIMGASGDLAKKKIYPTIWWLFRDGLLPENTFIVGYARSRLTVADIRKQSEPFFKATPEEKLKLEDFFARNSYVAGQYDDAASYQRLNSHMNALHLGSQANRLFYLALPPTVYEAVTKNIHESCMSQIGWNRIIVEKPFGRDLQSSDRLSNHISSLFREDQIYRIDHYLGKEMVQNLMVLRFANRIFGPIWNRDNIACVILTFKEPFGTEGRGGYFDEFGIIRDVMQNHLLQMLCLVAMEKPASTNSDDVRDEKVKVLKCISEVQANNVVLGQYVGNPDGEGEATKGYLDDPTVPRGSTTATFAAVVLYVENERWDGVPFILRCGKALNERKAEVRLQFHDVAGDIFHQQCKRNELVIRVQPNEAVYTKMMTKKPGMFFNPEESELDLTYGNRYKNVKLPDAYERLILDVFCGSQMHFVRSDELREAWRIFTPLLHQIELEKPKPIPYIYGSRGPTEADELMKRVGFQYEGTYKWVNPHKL

SMILES	AC50 (HeLa)	EC50 [2]	further results
CCc1nnc(NC(=O)c2ccc(Cl)nc2)s1	–	–	IC50 [1]: > 80 µM (inactive)
Cc1ccc(Nc2ncnc3ccccc23)cc1	154 µM (active)	–	–
COc1cccc(OCc2nnc(-c3cccs3)o2)c1	–	10.7 µM (inactive)	IC50 (cells): 5.57 µM (active)
Cc1cc(C)c2c(N)c(-c3nnc(SCc4ccc(Cl)cc4)n3C)sc2n1	–	0.252 µM (active)	–
O=C(NCCC1=CCCCC1)c1ccc(-n2cncn2)cc1	> 350 µM (inactive)	–	–
